According to patent publication US6344351B2, “(R)-transaminase from arthrobacter” (Kaneka Corporation, priority 1995, dated 2002):

Experiments:
[1] = system: (R)-form-specific transaminase of Arthrobacter sp. KNK168; test: Reactivity of purified transaminase of present invention to amino compounds, pyruvic acid as amino acceptor; format: biochemical; set-up: Transaminase of Present Invention (Relative Activity: %), Substrate Specificity: concentration or dose not given beside the values; settings: for Relative Activity (%) of amino compounds / Transaminase of Present Invention (Relative Activity: %), Substrate Specificity: purified enzyme; for Relative Activity (%) of amino compounds: 40 mM amino compound in substrate solution, 40 mM pyruvic acid, pH 8.3, 30° C., 1 hour, (R)-1-phenylethylamine = 100; for reactivity of amino compound / Transaminase of Present Invention (Relative Activity: %), Substrate Specificity: pyruvic acid as amino acceptor
Source text: The differences with the ω-amino acid transaminase derived from Pseudomonas sp. F-1 (Agric. Biol. Chem., 42, 2363-2367 (1978), Agric. Biol. Chem., 43, 1043-1048 (1979), J. Biol. Chem., 258, 2260-2265 (1983)) which have been well studied among the ω-amino acid transaminases, and with the benzylamine transaminase of Okada et al. (Japanese Patent Laid-Open No. Hei 6-178685) are summarized and shown in Table 2. In a case of the transaminase action in the present invention, the data of the purified enzyme are used, and in cases of those by other two enzymes, the data of the purified enzymes which are disclosed in each of the literature publication and patent publication are used. Pyruvic acid is used as an amino acceptor in all cases.
Using the purified enzyme obtained in Example 9, reactivities to various amino compounds when using pyruvic acid as an amino acceptor were evaluated. 150 μl of a solution of the purified enzyme diluted ten-folds was added to 150 μl of a substrate solution (0.1 M potassium phosphate buffer (pH 8.3), 40 mM pyruvic acid, 0.1 mM pyridoxal phosphate, and 40 mM various amino compounds). The components were reacted at 30° C. for 1 hour. The reaction tube was transferred into boiling water to stop the reaction, and, thereafter, a part of the reaction mixture was diluted five-folds. Ten μl of 0.1 M boric acid buffer (pH 8.0) and 20 μl of an ethanol solution of 80 mM of 4-fluoro-7-nitro-2,1,3-benzoxadiazole (NBD-F) were added to 10 μl of the above-mentioned diluted reaction mixture. The components were reacted at 60° C. for 1 minute, and, thereafter, the reaction mixture was ice-cooled, and 460 μl of 5 mM HCl was added thereto. This reaction mixture was analyzed by high-performance liquid chromatography using fine pack C18-5 column and using a 0.1 M potassium phosphate buffer (pH 6.5) and CH3CN (90:10) as an eluent solution to detect formation of alanine-NBD using excitation wavelength of 470 nm and using detection wave of […]. The results thereof are shown in Table 8 in terms of relative activity in the case of using […] as a substrate.

[2] = system: Arthrobacter species KNK168 strain; test: Amino donor test; (R)-DMA formation by cultured cells; format: cell-based
Procedure: The cultured cells were harvested by centrifugation, and the harvested cells were suspended in a reaction mixture (pH 8.5) containing 1% of 1-(3,4-dimethoxyphenyl)-2-propanone, […] of Triton X-100, and 1% of an amino donor shown in Table 2. The components were reacted at 35° C. for 20 hours.

[3] = system: transaminase (intracellular enzyme) of Arthrobacter sp. KNK168; test: Activity of the transaminase (intracellular enzyme) against typical substrates of ω-aminotransferases; format: biochemical
[4] = system: (R)-form-specific transaminase of Arthrobacter sp. KNK168; test: Reactivity of purified enzyme to carbonyl compounds, (R)-1-phenylethylamine as amino donor; format: biochemical; settings: for Relative Activity (%) of carbonyl compounds: purified enzyme, 25 mM carbonyl compound, 25 mM (R)-1-phenylethylamine, pH 8.5, 30° C., 1 to 3 hours, pyruvic acid = 100; for reactivity of carbonyl compound: (R)-1-phenylethylamine as amino donor
Procedure: Using the purified enzyme obtained in Example 9, reactivities to various carbonyl compounds using (R)-1-phenylethylamine as an amino donor were evaluated. 50 μl of a solution of the purified enzyme was added to 200 μl of a substrate solution (0.1 M Tris-HCl buffer (pH 8.5), 25 mM (R)-1-phenylethylamine, 0.1 mM pyridoxal phosphate, and 25 mM various carbonyl compounds), and the components were reacted at 30° C. for 1 to 3 hours. The reaction tube was transferred into boiling water to stop the reaction, and, thereafter, the reaction mixture was diluted five-folds with methanol. This diluted solution was analyzed by high-performance liquid chromatography using fine pack C18-5 column and using methanol/water (20:80) as an eluent solution to quantitatively analyze acetophenone formed by the reaction.

[5] = system: Arthrobacter species KNK168 strain; test: Surfactants and fatty acids as reaction additives; (R)-DMA formation by cells; format: cell-based
Procedure: The cells obtained by culturing the Arthrobacter species KNK168 strain in the R medium were suspended in a reaction mixture containing 2% of 1-(3,4-dimethoxyphenyl)-2-propanone and 4% of (RS)-1-phenylethylamine. The surfactants and fatty acids shown in Table 6 were added thereto, and the mixture was reacted at 30° C. at a pH of 8.5 for 20 hours.

[6] = biological target: T1, ω-amino acid transaminase derived from Pseudomonas sp. F-1 (Pseudomonas putida, UniProt P28269); set-up: concentration or dose not given beside the values; settings: purified enzyme, literature data; pyruvic acid as amino acceptor; cited from earlier work
T1 sequence (P28269 1-449): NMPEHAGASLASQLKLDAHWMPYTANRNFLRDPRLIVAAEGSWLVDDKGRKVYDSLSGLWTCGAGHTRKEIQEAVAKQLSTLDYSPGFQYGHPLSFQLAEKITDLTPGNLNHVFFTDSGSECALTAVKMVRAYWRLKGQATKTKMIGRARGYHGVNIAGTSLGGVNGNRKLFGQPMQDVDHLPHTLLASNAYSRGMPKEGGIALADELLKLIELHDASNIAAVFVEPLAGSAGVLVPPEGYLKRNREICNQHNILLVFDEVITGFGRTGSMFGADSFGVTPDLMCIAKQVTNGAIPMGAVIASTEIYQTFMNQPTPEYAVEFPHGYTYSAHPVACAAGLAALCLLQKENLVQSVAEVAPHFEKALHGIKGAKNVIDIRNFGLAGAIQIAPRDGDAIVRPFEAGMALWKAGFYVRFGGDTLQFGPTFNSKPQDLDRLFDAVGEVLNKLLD

[7] = 1% amino donor, 1% 1-(3,4-dimethoxyphenyl)-2-propanone, Triton X-100, pH 8.5, 35° C., 20 hours
[8] = amino acceptor 2-ketoglutaric acid, (R)-1-phenylethylamine/pyruvic acid control = 100
[9] = additive 0.1%, 2% ketone, 4% (RS)-1-phenylethylamine, 30° C., pH 8.5, 20 hours, no addition 28.1
[10] = additive 0.5%, otherwise as 0.1%
[11] = amino acceptor pyruvic acid, (R)-1-phenylethylamine control = 100

N[C@H](CO)Cc1ccccc1 [L-Phenylalaninol]
Relative Activity (%) of amino compounds [1]: 0.8%

CC(N)c1ccccc1 (racemic) [(RS)-1-phenylmethylamine]
(R)-DMA Formed (%), amino group donor [2, 7]: 3.1%

NC(=O)CC(N)C(=O)O (racemic) [DL-Asparagine]
Relative Activity (%) as amino donor [3, 8]: 0%

CC(=O)c1cnccn1 [2-Acetylpyrazine]
Relative Activity (%) of carbonyl compounds [4]: 17%

CCCCCC(C)N (stereo not shown) [2-Heptylamine]
Relative Activity (%) of amino compounds [1]: 37%

CCCC(C)N (racemic) [(RS)-2-Aminopentane]
function as amino donor [2]: functioned as amino donors

Triton X-100
(R)-DMA Formed (%), additive [5, 9]: 31.6% | (R)-DMA Formed (%), additive [5, 10]: 34.0%

CCCCCCCCCCCCOS(=O)(=O)[O-].[Na+] [Sodium dodecyl sulfate]
effect of additive on rate of reaction [5]: rate of reaction was increased | (R)-DMA Formed (%), additive [5, 9]: 45.3% | (R)-DMA Formed (%), additive [5, 10]: 42.2% | (R)-DMA Formed (%), additive ([5]; additive 1.0%): 46.3% | (R)-DMA Formed (%), additive ([5]; additive 2.0%): 50.1% | (R)-DMA Formed (%), additive ([5]; additive 3.0%): 51.9% | (R)-DMA Formed (%), additive ([5]; additive 4.0%): 53.1%

CC(CN)c1ccccc1 (racemic) [(RS)-1-Amino-2-phenylpropane]
(R)-DMA Formed (%), amino group donor ([2]; pH 8.5): 1.8%

CC(=O)CCc1ccccc1 [Benzyl acetone]
Relative Activity (%) of carbonyl compounds [4]: 3%

CCC(=O)Cc1ccccc1 [1-Phenyl-2-butanone]
Relative Activity (%) of carbonyl compounds [4]: 1%

CC(=O)C(C)=O [Diacetyl]
Relative Activity (%) of carbonyl compounds [4]: 10%

O=CC(=O)O [Glyoxylic acid]
Relative Activity (%) of carbonyl compounds [4]: 4%

CCCCCCCCCCCCCCCC[N+](C)(C)C.[Br-] [Cetyl trimethyl ammonium bromide (CTAB), Cetyl trimethyl ammonium bromide]
(R)-DMA Formed (%), additive [5, 9]: 29.1%

N[C@H](CO)c1ccccc1 [(S)-2-Phenylglycinol]
Relative Activity (%) of amino compounds [1]: 180% | reactivity of amino compound [1]: favorable reactivities

NCCCCC(N)C(=O)O (racemic) [DL-Lysine]
Relative Activity (%) as amino donor [3, 8]: 0%

NCCC(N)C(=O)O (stereo not drawn) [α-2,4-Diaminobutyric acid]
Relative Activity (%) as amino donor [3, 11]: 0%

CCCCCCCC/C=C\CCCCCCCC(=O)O [Oleic Acid]
effect of additive on rate of reaction [5]: rate of reaction was increased | (R)-DMA Formed (%), additive ([5]; additive 2.9%): 44.9%

O=C(O)CC(=O)C(=O)O [Oxalacetic acid]
reactivity of carbonyl compound [4]: favorable reactivities | Relative Activity (%) of carbonyl compounds [4]: 87%

CC(=O)c1ccncc1 [4-Acetylpyridine]
Relative Activity (%) of carbonyl compounds [4]: 27%

CC(=O)c1cccnc1 [3-Acetylpyridine]
Relative Activity (%) of carbonyl compounds [4]: 8%

COc1ccc(CCC(C)=O)cc1 [4-(4-Methoxyphenyl)-2-butanone]
Relative Activity (%) of carbonyl compounds [4]: 7%

CCCCCCC(C)N (stereo not shown) [1-Methylheptylamine]
Relative Activity (%) of amino compounds [1]: 47%

CCOC(=O)C(C)=O [Ethyl pyruvate]
Relative Activity (%) of carbonyl compounds [4]: 27%

CC(N)c1cccc2ccccc12 (racemic) [(RS)-1-Naphthylethylamine]
(R)-DMA Formed (%), amino group donor [2, 7]: 34.2%

CC(=O)COc1ccccc1 [Phenoxy-2-propanone]
reactivity of carbonyl compound [4]: favorable reactivities | Relative Activity (%) of carbonyl compounds [4]: 83%

CC(=O)Oc1cccnc1 [3-Acetoxypyridine]
Relative Activity (%) of carbonyl compounds [4]: 1%

CC(N)CC(=O)O (racemic) [DL-3-Aminobutyric acid]
action of the transaminase derived from Arthrobacter on the substrate [1]: does not act | Transaminase of Present Invention (Relative Activity: %), Substrate Specificity [1]: 0% | ω-Amino Acid Transaminase (Relative Activity: %), Substrate Specificity [6]: 96%

CCC(C)N (stereo not shown) [1-Methylpropylamine]
Relative Activity (%) of amino compounds [1]: 1.2%

NCCS(=O)(=O)O [Taurine]
Relative Activity (%) as amino donor [3, 8]: 0%

CC(N)CCc1ccccc1 (stereo not shown) [3-Aminophenylbutane]
Relative Activity (%) of amino compounds [1]: 84% | reactivity of amino compound [1]: favorable reactivities

CC(=O)c1ccccn1 [2-Acetylpyridine]
Relative Activity (%) of carbonyl compounds [4]: 19%

2-Decane
Relative Activity (%) of carbonyl compounds [4]: 3%

COCC(C)=O [1-Methoxy-2-propanone]
Relative Activity (%) of carbonyl compounds [4]: 16%

CC(=O)C(=O)O [Pyruvic acid]
Relative Activity (%) of carbonyl compounds [4]: 100%

NC(=O)CCC(N)C(=O)O (racemic) [DL-Glutamine]
Relative Activity (%) as amino donor [3, 8]: 0%

NCCCC(=O)O [4-Aminobutyric acid]
Relative Activity (%) as amino donor [3, 8]: 0% | action of the transaminase derived from Arthrobacter on the substrate [1]: does not act | Transaminase of Present Invention (Relative Activity: %), Substrate Specificity [1]: 0% | ω-Amino Acid Transaminase (Relative Activity: %), Substrate Specificity [6]: 40%

COc1ccc(C[C@@H](C)N)cc1OC [(R)-3,4-Dimethoxyaminopropane]
Relative Activity (%) of amino compounds [1]: 30%

CC(=O)c1ccco1 [2-Acetylfuran]
Relative Activity (%) of carbonyl compounds [4]: 2%

CC(=O)c1cccs1 [2-Acetylthiophene]
Relative Activity (%) of carbonyl compounds [4]: 1%

CCOC(=O)CC(C)=O [Ethyl acetoacetate]
Relative Activity (%) of carbonyl compounds [4]: 4%

C[C@@H](N)c1ccccc1 [(R)-1-Phenylethylamine]
activity of the transferase to amino donor [3]: especially high activity | Relative Activity (%) as amino donor [3, 11]: 100% | Relative Activity (%) of amino compounds [1]: 100%

O=C1CCCc2ccccc21 [1-Tetralone]
Relative Activity (%) of carbonyl compounds [4]: 1%

CC(N)CO (racemic) [(RS)-2-Amino-1-propanol]
(R)-DMA Formed (%), amino group donor [2, 7]: 9.6%

O=CCc1ccccc1 [Phenyl acetaldehyde]
Relative Activity (%) of carbonyl compounds [4]: 13%

CCC(=O)C(=O)O [2-Ketobutyric acid]
Relative Activity (%) of carbonyl compounds [4]: 7%

COc1ccc(CC(C)=O)cc1OC [1-(3,4-Dimethoxyphenyl)-2-propanone]
Relative Activity (%) of carbonyl compounds [4]: 7%

CCOC(=O)CC(=O)c1ccccc1 [Ethyl benzoyl acetate]
Relative Activity (%) of carbonyl compounds [4]: 2%

CC(=O)c1nccs1 [2-Acetylthiazole]
Relative Activity (%) of carbonyl compounds [4]: 10%

CCCCC/C=C\C/C=C\CCCCCCCC(=O)O [Linoleic Acid]
effect of additive on rate of reaction [5]: rate of reaction was increased | (R)-DMA Formed (%), additive ([5]; additive 2.9%): 45.1%
